# Source: PubChem BioAssay AID2060503 (Molecular Pharmacology Branch, DTP, NCI, 2025)
# Tested on: 817829-284-R-J1-PDC complex spheroids, viability
# Test: Anticancer human tumor 817829-284-R-J1-PDC patient-derived colon adenocarcinoma cell line growth inhibition [GQUAD]
# Settings: for IC50: curve of first compound; for viability, T/C: stronger effect = lower value
# How it was run: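 Tumor cells were grown as complex spheroids with HUVEC endothelial cells and mesenchymal stem cells as stroma. G-quadruplex stabilizers were combined with targeted agents over half-log dilutions from near the clinical Cmax, or from 10 microM.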
# [1] = second compound 0.0316 µM, first compound 0.0316 µM
# [2] = second compound 0.0316 µM, first compound 0.1 µM
# [3] = second compound 0.0316 µM, first compound 0.316 µM
# [4] = second compound 0.0316 µM, first compound 1 µM
# [5] = second compound 0.0316 µM, first compound 3.16 µM
# [6] = second compound 0.0316 µM, first compound 10 µM
# [7] = second compound 0.1 µM, first compound 0.0316 µM
# [8] = second compound 0.1 µM, first compound 0.1 µM
# [9] = second compound 0.1 µM, first compound 0.316 µM
# [10] = second compound 0.1 µM, first compound 1 µM
# [11] = second compound 0.1 µM, first compound 3.16 µM
# [12] = second compound 0.1 µM, first compound 10 µM
# [13] = second compound 0.316 µM, first compound 0.0316 µM
# [14] = second compound 0.316 µM, first compound 0.1 µM
# [15] = second compound 0.316 µM, first compound 0.316 µM
# [16] = second compound 0.316 µM, first compound 1 µM
# [17] = second compound 0.316 µM, first compound 3.16 µM
# [18] = second compound 0.316 µM, first compound 10 µM
# [19] = second compound 1 µM, first compound 0.0316 µM
# [20] = second compound 1 µM, first compound 0.1 µM
# [21] = second compound 1 µM, first compound 0.316 µM
# [22] = second compound 1 µM, first compound 1 µM
# [23] = second compound 1 µM, first compound 3.16 µM
# [24] = second compound 1 µM, first compound 10 µM
# [25] = second compound 3.16 µM, first compound 0.0316 µM
# [26] = second compound 3.16 µM, first compound 0.1 µM
# [27] = second compound 3.16 µM, first compound 0.316 µM
# [28] = second compound 3.16 µM, first compound 1 µM
# [29] = second compound 3.16 µM, first compound 3.16 µM
# [30] = second compound 3.16 µM, first compound 10 µM
# [31] = second compound 10 µM, first compound 0.0316 µM
# [32] = second compound 10 µM, first compound 0.1 µM
# [33] = second compound 10 µM, first compound 0.316 µM
# [34] = second compound 10 µM, first compound 1 µM
# [35] = second compound 10 µM, first compound 3.16 µM
# [36] = second compound 10 µM, first compound 10 µM
# 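Also: spheroids exposed to agents for 7 days before readout.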
# 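For viability, T/C in this document: percent viability relative to DMSO vehicle control taken as 100%.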
smiles,measurement,setting,value
CC1COCCN1c1cc(C2(S(C)(=N)=O)CC2)nc(-c2ccnc3[nH]ccc23)n1 (stereo not drawn) + Cc1[nH]c2ccc(F)cc2c1-c1nc2c3cccnc3c3ncccc3c2[nH]1,IC50,second compound 0.0316 µM,699 nM
same,IC50,second compound 0.1 µM,701 nM
same,IC50,second compound 0.316 µM,683 nM
same,IC50,second compound 1 µM,709 nM
same,IC50,second compound 3.16 µM,508 nM
same,IC50,second compound 10 µM,< 31.6 nM
same,"viability, T/C",[1],110%
same,"viability, T/C",[2],95.6%
same,"viability, T/C",[3],106%
same,"viability, T/C",[4],25.7%
same,"viability, T/C",[5],11.6%
same,"viability, T/C",[6],8.11%
same,"viability, T/C",[7],96.8%
same,"viability, T/C",[8],107%
same,"viability, T/C",[9],93.4%
same,"viability, T/C",[10],30.4%
same,"viability, T/C",[11],10.7%
same,"viability, T/C",[12],7.69%
same,"viability, T/C",[13],94.7%
same,"viability, T/C",[14],106%
same,"viability, T/C",[15],95.3%
same,"viability, T/C",[16],27.5%
same,"viability, T/C",[17],11.1%
same,"viability, T/C",[18],8.75%
same,"viability, T/C",[19],89.8%
same,"viability, T/C",[20],117%
same,"viability, T/C",[21],105%
same,"viability, T/C",[22],27.2%
same,"viability, T/C",[23],10.7%
same,"viability, T/C",[24],6.79%
same,"viability, T/C",[25],97.7%
same,"viability, T/C",[26],92%
same,"viability, T/C",[27],77.4%
same,"viability, T/C",[28],10.7%
same,"viability, T/C",[29],6.38%
same,"viability, T/C",[30],4.15%
same,"viability, T/C",[31],45.7%
same,"viability, T/C",[32],39.1%
same,"viability, T/C",[33],30.1%
same,"viability, T/C",[34],4.8%
same,"viability, T/C",[35],4.1%
same,"viability, T/C",[36],2.86%
CC(=O)O[C@H]1C(=O)[C@@]2(C)[C@H]([C@H](OC(=O)c3ccccc3)[C@]3(O)C[C@H](OC(=O)[C@H](O)[C@@H](NC(=O)c4ccccc4)c4ccccc4)C(C)=C1C3(C)C)[C@]1(OC(C)=O)CO[C@@H]1C[C@@H]2O + Cc1cnc(CNC(=O)c2c(=O)c3ccc(N4CCCN(C)CC4)nc3n3c2sc2ccccc23)cn1,IC50,second compound 0.0316 µM,< 31.6 nM
same,IC50,second compound 0.1 µM,< 31.6 nM
same,IC50,second compound 0.316 µM,< 31.6 nM
same,IC50,second compound 1 µM,< 31.6 nM
same,IC50,second compound 3.16 µM,< 31.6 nM
same,IC50,second compound 10 µM,< 31.6 nM
same,"viability, T/C",[1],13.8%
same,"viability, T/C",[2],7.95%
same,"viability, T/C",[3],6.83%
same,"viability, T/C",[4],5.58%
same,"viability, T/C",[5],6.63%
same,"viability, T/C",[6],7.13%
same,"viability, T/C",[7],16.6%
same,"viability, T/C",[8],15.9%
same,"viability, T/C",[9],13.2%
same,"viability, T/C",[10],13.6%
same,"viability, T/C",[11],14.1%
same,"viability, T/C",[12],14.8%
same,"viability, T/C",[13],17.9%
same,"viability, T/C",[14],20.6%
same,"viability, T/C",[15],19.2%
same,"viability, T/C",[16],19.6%
same,"viability, T/C",[17],16%
same,"viability, T/C",[18],20.2%
same,"viability, T/C",[19],15.3%
same,"viability, T/C",[20],20.4%
same,"viability, T/C",[21],17.4%
same,"viability, T/C",[22],17%
same,"viability, T/C",[23],17.5%
same,"viability, T/C",[24],16.5%
same,"viability, T/C",[25],17.3%
same,"viability, T/C",[26],16.9%
same,"viability, T/C",[27],14.7%
same,"viability, T/C",[28],14.4%
same,"viability, T/C",[29],12.7%
same,"viability, T/C",[30],13.1%
same,"viability, T/C",[31],0.11%
same,"viability, T/C",[32],0.16%
same,"viability, T/C",[33],0.15%
same,"viability, T/C",[34],0.14%
same,"viability, T/C",[35],0.15%
same,"viability, T/C",[36],0.15%
CC(=O)O[C@H]1C(=O)[C@@]2(C)[C@H]([C@H](OC(=O)c3ccccc3)[C@]3(O)C[C@H](OC(=O)[C@H](O)[C@@H](NC(=O)c4ccccc4)c4ccccc4)C(C)=C1C3(C)C)[C@]1(OC(C)=O)CO[C@@H]1C[C@@H]2O + Cc1[nH]c2ccc(F)cc2c1-c1nc2c3cccnc3c3ncccc3c2[nH]1,IC50,second compound 0.0316 µM,< 31.6 nM
same,IC50,second compound 0.1 µM,< 31.6 nM
same,IC50,second compound 0.316 µM,< 31.6 nM
same,IC50,second compound 1 µM,< 31.6 nM
same,IC50,second compound 3.16 µM,< 31.6 nM
same,IC50,second compound 10 µM,< 31.6 nM
same,"viability, T/C",[1],7.69%
same,"viability, T/C",[2],5%
same,"viability, T/C",[3],4.12%
same,"viability, T/C",[4],4.33%
same,"viability, T/C",[5],3.69%
same,"viability, T/C",[6],5.32%
same,"viability, T/C",[7],6.62%
same,"viability, T/C",[8],5.4%
same,"viability, T/C",[9],5.3%
same,"viability, T/C",[10],3.81%
same,"viability, T/C",[11],4.86%
same,"viability, T/C",[12],4.62%
same,"viability, T/C",[13],7.16%
same,"viability, T/C",[14],5.87%
same,"viability, T/C",[15],4.46%
same,"viability, T/C",[16],3.72%
same,"viability, T/C",[17],4.25%
same,"viability, T/C",[18],5.31%
same,"viability, T/C",[19],7.59%
same,"viability, T/C",[20],6.66%
same,"viability, T/C",[21],6.33%
same,"viability, T/C",[22],6.63%
same,"viability, T/C",[23],6.34%
same,"viability, T/C",[24],6.37%
same,"viability, T/C",[25],3.48%
same,"viability, T/C",[26],4.37%
same,"viability, T/C",[27],3.76%
same,"viability, T/C",[28],3.37%
same,"viability, T/C",[29],3.38%
same,"viability, T/C",[30],3.67%
same,"viability, T/C",[31],3.27%
same,"viability, T/C",[32],3.76%
same,"viability, T/C",[33],3.43%
same,"viability, T/C",[34],2.91%
same,"viability, T/C",[35],3.42%
same,"viability, T/C",[36],3.04%
Nc1ccn(C2OC(CO)C(O)C2(F)F)c(=O)n1 (stereo not drawn) + CN(C)c1ccc(Nc2c3ccc(NC(=O)CCN4CCCC4)cc3nc3cc(NC(=O)CCN4CCCC4)ccc23)cc1,IC50,second compound 0.0316 µM,< 31.6 nM
same,IC50,second compound 0.1 µM,< 31.6 nM
same,IC50,second compound 0.316 µM,< 31.6 nM
same,IC50,second compound 1 µM,< 31.6 nM
same,IC50,second compound 3.16 µM,< 31.6 nM
same,IC50,second compound 10 µM,< 31.6 nM
same,"viability, T/C",[1],11.1%
same,"viability, T/C",[2],6.76%
same,"viability, T/C",[3],7.53%
same,"viability, T/C",[4],6.63%
same,"viability, T/C",[5],5.22%
same,"viability, T/C",[6],3.38%
same,"viability, T/C",[7],11.5%
same,"viability, T/C",[8],7.05%
same,"viability, T/C",[9],7.75%
same,"viability, T/C",[10],7.5%
same,"viability, T/C",[11],5.74%
same,"viability, T/C",[12],4.58%
same,"viability, T/C",[13],10.2%
same,"viability, T/C",[14],7.22%
same,"viability, T/C",[15],7.51%
same,"viability, T/C",[16],6.86%
same,"viability, T/C",[17],5.17%
same,"viability, T/C",[18],3.32%
same,"viability, T/C",[19],10.5%
same,"viability, T/C",[20],5.85%
same,"viability, T/C",[21],7.62%
same,"viability, T/C",[22],8.41%
same,"viability, T/C",[23],6.53%
same,"viability, T/C",[24],3.73%
same,"viability, T/C",[25],8.54%
same,"viability, T/C",[26],7.05%
same,"viability, T/C",[27],8.46%
same,"viability, T/C",[28],8.5%
same,"viability, T/C",[29],6.92%
same,"viability, T/C",[30],3.39%
same,"viability, T/C",[31],10.7%
same,"viability, T/C",[32],9.04%
same,"viability, T/C",[33],8.83%
same,"viability, T/C",[34],8.64%
same,"viability, T/C",[35],6.59%
same,"viability, T/C",[36],4.48%
